Consider 21 compounds from patent EP0973746B1, “SUBSTITUTED 3-CYANO QUINOLINES” (Wyeth Holdings Corporation, priority 1997, dated 1998).

The target of series [1] is Epithelial Cell Kinase (ECK) (Homo sapiens, UniProt P29317). Nature of the series: biochemical.
Experimental: In this standard pharmacological test procedure, a biotinylated peptide substrate is first immobilized on neutravidin-coated microtiter plates. The test drug, the Epithelial Cell Kinase (ECK), Mg^++, sodium vanadate (a protein tyrosine phosphatase inhibitor), and an appropriate buffer to maintain pH (7.2) are then added to the immobilized substrate-containing microtiter wells. ATP is then added to initiate phosphorylation. After incubation, the assay plates are washed with a suitable buffer leaving behind phosphorylated peptide which is exposed to horse radish peroxidase (HRP)-conjugated anti-phosphotyrosine monoclonal antibody. The antibody-treated plates are washed again and the HRP activity in individual wells is quantified as a reflection of degree of substrate phosphorylation.
The target of series [2] is recombinant human MEK 1 (MAPKK) and recombinant human ERK2 (MAPK). Nature of the series: Mitogen Activated Protein Kinase (MAPK) assay, two component coupled MEK 1 / ERK2.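 Note: MEK 1-activated ERK2 phosphorylates MBP or Myc peptide with 33P-ATP, filter capture and scintillation counting, inhibitor preincubated with ERK2 30 min at 0 °C, inhibition relative to uninhibited control.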 Type of series: biochemical. To be noted: separate entries for the same compound = evaluated more than one time.
Series [3] deals with T1, His-tagged cytoplasmic domain of EGFR (Homo sapiens, UniProt P00533).
T1 construct: containing the EGFR cDNA encoding amino acids 645 - 1186 preceded by Met-Ala-(His)6; made in house; host or cells: Sf9 cells, recombinant baculovirus vHcEGFR52
T1 sequence (P00533 669-1210): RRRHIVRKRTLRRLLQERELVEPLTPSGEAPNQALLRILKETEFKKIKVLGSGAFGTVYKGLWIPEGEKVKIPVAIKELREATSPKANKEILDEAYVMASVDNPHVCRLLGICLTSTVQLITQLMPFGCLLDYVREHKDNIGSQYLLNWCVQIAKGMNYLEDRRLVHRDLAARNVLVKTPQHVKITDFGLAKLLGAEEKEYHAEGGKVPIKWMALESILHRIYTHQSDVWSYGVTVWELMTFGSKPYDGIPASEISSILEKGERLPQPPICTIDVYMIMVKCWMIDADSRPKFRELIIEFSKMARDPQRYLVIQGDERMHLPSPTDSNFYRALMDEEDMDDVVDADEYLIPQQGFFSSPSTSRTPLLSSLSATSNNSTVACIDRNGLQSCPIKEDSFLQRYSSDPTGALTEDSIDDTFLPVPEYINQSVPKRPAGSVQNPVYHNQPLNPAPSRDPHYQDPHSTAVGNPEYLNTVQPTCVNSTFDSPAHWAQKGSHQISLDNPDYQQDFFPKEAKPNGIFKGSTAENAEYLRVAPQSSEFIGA
Nature of the series: Inhibition of Epidermal Growth Factor Receptor Kinase (EGF-R) using recombinant enzyme.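 Note: radiometric kinase assay measuring radiolabeled phosphate transfer from ATP onto the peptide tyrosine by scintillation counting, control is reaction without compound, background subtracted, IC50 from dose-response curve.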 To be noted: recombinant enzyme; RR-SRC peptide; average of the number of tests; read-out: IC50. It counts as biochemical.

For series [4], the target named is T2, Kinase insert Domain containing Receptor (KDR: the catalytic domain of the VEGF receptor) (Homo sapiens, UniProt P35968).
T2 construct: KDR: the catalytic domain of the VEGF receptor
T2 sequence (P35968 834-1162 limits assumed): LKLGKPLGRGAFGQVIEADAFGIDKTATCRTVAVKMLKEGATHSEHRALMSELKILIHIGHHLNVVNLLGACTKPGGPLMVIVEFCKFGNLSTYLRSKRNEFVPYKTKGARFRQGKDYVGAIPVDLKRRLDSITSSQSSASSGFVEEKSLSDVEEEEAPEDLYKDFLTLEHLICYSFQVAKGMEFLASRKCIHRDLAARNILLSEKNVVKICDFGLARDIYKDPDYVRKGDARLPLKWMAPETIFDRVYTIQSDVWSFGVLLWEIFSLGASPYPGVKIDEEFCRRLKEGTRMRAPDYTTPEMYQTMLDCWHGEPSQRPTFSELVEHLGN
Nature of the series: Inhibition of Kinase insert Domain containing Receptor (KDR).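 Note: KDR phosphorylating a Glu:Tyr 4:1 copolymer with P32- or P33-labelled ATP, Mg++ and vanadate, read as acid-insoluble radiolabel, compared with compound-free reaction.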 It counts as biochemical. To be noted: pH 7.2; radioactive format; read-out: KDR IC50 (converted).
Experimental: In this standard pharmacological test procedure, KDR protein is mixed, in the presence or absence of a inhibitor compound, with a substrate peptide to be phosphorylated (a copolymer of glutamic acid and tyrosine, E:Y :: 4:1) and other cofactors such as Mg^++ and sodium vanadate (a protein tyrosine phosphatase inhibitor) in an appropriate buffer to maintain pH (7.2). ATP and a radioactive tracer (either P^32-or P^33- labeled ATP) is then add to initiate phosphorylation. After incubation, the radioactive phosphate associated with the acid-insoluble fraction of the assay mixture is then quantified as reflection of substrate phosphorylation.

Series [5] has as its system human epidermoid tumors (A431). Nature of the series: In vivo inhibition of the growth of human epidermoid tumors (A431). The conditions noted are these: Table 10; for S/T = No. Survivors/No. Treated: Day +28 post tumor staging. On the procedure:
Representative compounds of this invention (listed below) were evaluated in an in vivo standard pharmacological test procedure which measured its ability to inhibit the growth of human epidermoid tumors. […] BALB/c nu/nu female mice (Charles River, Wilmington, MA) were used in this in vivo standard pharmacological test procedure. A unit of 5 X 10^6 cells were injected SC into mice. When tumors attained a mass of between 100 and 150 mg, the mice were randomized into treatment groups (day zero). […] Control animals received no drug. Tumor mass was determined every 7 days [(length X width^2)/2] for 28 days post staging. Relative tumor growth (Mean tumor mass on days 7, 14, 21, and 28 divided by the mean tumor mass on day zero) is determined for each treatment group.

The next series concerns A431. Nature of the series: Inhibition of cancer cell growth as measured by cell number, A431.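 Note: human A431 line, picked because it overexpresses epidermal growth factor receptor (EGFR).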 Type of series: cell-based, human. To be noted: Homo sapiens, A-431, 48 h, read-out: IC50 A431.
A further series deals with SKBR3. Nature of the series: Inhibition of cancer cell growth as measured by cell number, SKBR3.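 Note: SK-BR-3 cells were selected as a line overexpressing HER2/neu.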 It counts as cell-based, human. The conditions noted are these: Homo sapiens, SK-BR-3, 48 h, read-out: IC50 SKBR3.
Another series relates to SW620. Nature of the series: Inhibition of cancer cell growth as measured by cell number, SW620.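 Note: SW620 was included as a cell line with little or no EGFR or HER2/neu expression, in contrast to receptor-overexpressing lines.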 It counts as cell-based, human. To be noted: Homo sapiens, SW-620, 48 h, read-out: IC50 SW620.
The test system of the next series is LOX. Nature of the series: Inhibition of cancer cell growth as measured by cell number, LOX.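 Note: LOX cells served as a line with low or absent EGFR and HER2/neu expression, in contrast to receptor-overexpressing lines.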 It counts as cell-based, human. To be noted: Homo sapiens, LOX, 48 h, read-out: IC50 LOX.
Where [6] appears, read: 80 mg/kg/dose PO on days 1 through 10.

Each structure is given as a SMILES string. In brackets after ≈: the same amount, converted by molar mass. Several values for one entry are separate records, joined by “and”; a condition that tells them apart may be missing. Identical values can stand only once. Where only a bound is given, the exact number is not on record here.

Sequence of Epithelial Cell Kinase (ECK) (P29317 24-976, species assumed): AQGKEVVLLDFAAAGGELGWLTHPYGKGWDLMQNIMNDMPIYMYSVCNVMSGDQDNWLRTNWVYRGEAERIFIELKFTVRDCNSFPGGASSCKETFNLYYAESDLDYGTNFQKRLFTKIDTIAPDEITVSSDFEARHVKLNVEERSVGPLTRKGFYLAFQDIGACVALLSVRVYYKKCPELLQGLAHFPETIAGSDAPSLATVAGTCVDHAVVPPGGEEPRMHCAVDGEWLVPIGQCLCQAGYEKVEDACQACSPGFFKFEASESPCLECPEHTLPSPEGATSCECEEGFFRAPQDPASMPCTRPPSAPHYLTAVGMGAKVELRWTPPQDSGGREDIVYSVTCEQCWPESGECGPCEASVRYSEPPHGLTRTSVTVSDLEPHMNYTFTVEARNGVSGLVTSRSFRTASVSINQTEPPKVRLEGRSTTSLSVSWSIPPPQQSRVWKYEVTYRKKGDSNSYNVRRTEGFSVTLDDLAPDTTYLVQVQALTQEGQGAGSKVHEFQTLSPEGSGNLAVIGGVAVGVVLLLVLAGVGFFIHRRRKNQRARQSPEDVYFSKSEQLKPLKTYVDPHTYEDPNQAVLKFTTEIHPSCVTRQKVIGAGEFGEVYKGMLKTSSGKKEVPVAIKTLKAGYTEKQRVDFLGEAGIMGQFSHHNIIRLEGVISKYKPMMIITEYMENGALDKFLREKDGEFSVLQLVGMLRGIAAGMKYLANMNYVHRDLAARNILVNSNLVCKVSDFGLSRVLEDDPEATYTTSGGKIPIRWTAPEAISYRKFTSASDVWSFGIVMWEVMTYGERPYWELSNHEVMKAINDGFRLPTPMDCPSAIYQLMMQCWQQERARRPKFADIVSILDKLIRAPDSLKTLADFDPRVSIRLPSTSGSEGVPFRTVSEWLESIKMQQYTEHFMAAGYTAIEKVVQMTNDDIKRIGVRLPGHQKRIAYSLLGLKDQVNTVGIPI
Text for LOX: (§1) The cell lines were chosen since they overexpressed epidermal growth factor receptor (EGFR) (i.e. A431) or HER2/neu (SKBR3), or had little to no expression of the these receptors (SW620, LOX, MCF7).
Text for SKBR3: as §1
Text for SW620: as §1

In the case of `C=CC(=O)Nc1ccc2ncc(C#N)c(Nc3cccc(I)c3)c2c1` [Example 129], the IC50 in [1] is 22.7 µM; in [2], 60 µM; in series [3] it was 0.04 µM.
In the case of `COc1cc2ncc(C#N)c(Nc3c(C)cccc3O)c2cc1OC` [Example 246, 4-(2-Hydroxy-6-methyl-phenylamino)-6,7-dimethoxy-quinoline-3-carbonitrile], the IC50 in series [1] is 0.006 µM; in [4], more than 29.8 µM; in series [2], 35 µM.
Turning to `COc1cc2c(Nc3ccc(Cl)cc3F)c(C#N)cnc2cc1OCCCCl` [Example 76, 4-(4-Chloro-2-fluoro-phenylamino)-7-(3-chloro-propoxy)-6-methoxy-quinoline-3-carbonitrile], the values for the IC50 in [1], in series [4] and in [2] were 0.466 µM, 1.67 µM and less than 1 µM, respectively.
For the compound `COc1cc2ncc(C#N)c(Nc3cccc(SC)c3)c2cc1OC` [Example 294, 6,7-Dimethoxy-4-(3-methylsulfanyl-phenylamino)-quinoline-3-carbonitrile], the concentration for half-maximal inhibition (IC50) in series [1] is 0.002 µM; in series [4], 17.1 µM; in series [2], 9 µM.
In the same order, the values of `COc1ccc2c(Nc3ccc(C)c(O)c3)c(C#N)cnc2c1` [Example 281, 4-(3-hydroxy-4-methyl-phenylamino)-7-methoxy-quinoline-3-carbonitrile] are 0.0033 µM, 9.83 µM and 2.5 µM.
Taken in the same sequence, the figures for `COc1cc2c(Nc3ccc(C)c(O)c3)c(C#N)cnc2cc1OCCN(C)C` [Example 82, 7-(2-Dimethylamino-ethoxy)-4-(3-hydroxy-4-methylphenylamino)-6-methoxy-quinoline-3-carbonitrile] were 51 µM, 7.64 µM and 5.5 µM.
On to `COc1cc2c(Nc3cc(O)c(Cl)cc3F)c(C#N)cnc2cc1OCCCN1CCOCC1` [Example 85, 4-(4-Chloro-2-fluoro-5-hydroxy-phenylamino)-6-methoxy-7-(3-morpholin-4-yl-propoxy)-quinoline-3-carbonitrile], for which the IC50 is 0.0411 µM in series [1] and 0.616 µM in series [4].
Consider `CCOc1cc2ncc(C#N)c(Nc3cccc(Br)c3)c2cc1OC` [Example 176, 4-[(3-Bromophenyl)amino]-7-ethoxy-6-methoxy-3-quinolinecarbonitrile], for which the values for the IC50 in series [1], in [4] and in [2] were 0.01 µM, 7.53 µM and more than 100 µM, respectively.
Take `COc1cc2ncc(C#N)c(Nc3cc(O)c(Cl)cc3F)c2cc1OC` [Example 319, 4-(4-Chloro-2-fluoro-5-hydroxy-phenylamino)-6,7-dimethoxy-quinoline-3-carbonitrile]: the IC50 in series [1] is 0.001 µM; in series [4] it was 1.34 µM; in series [2] it was less than 1 µM.
As to `CCN(CC)CC=CC(=O)Nc1cc2c(Nc3ccc(F)c(Cl)c3)c(C#N)cnc2cc1OC` [Example 204, 4-Diethylamino-but-2-enoic acid [4-(3-chloro-4-fluorophenylamino)-3-cyano-7-methoxy-quinolin-6-yl]-amide], the midpoint of inhibition in series [1], the IC50, lay at 20.7 µM. Besides, the IC50 in [2] is 35 µM. Moreover, in series [5] (80 mg/kg/dose IP on days 1,5,9), the “%T/C Day 7” value was 45%, the “%T/C Day 14” value came out at 42%, the “%T/C Day 21” value is 55% and the “%T/C Day 28” value turned out to be 49%. Further, in series [5] (80 mg/kg/dose IP on days 1,5,9), the “S/T = No. Survivors/No. Treated” value is 5/5. In addition, in series [5] (setting [6]), the “%T/C Day 7” value is reported as 25%, the “%T/C Day 14” value is 18%, the “%T/C Day 21” value came out at 43% and the “%T/C Day 28” value came out at 51%. For the same compound, the “S/T = No. Survivors/No. Treated” value in series [5] (setting [6]) was 4/5.
`COc1cc2ncc(C#N)c(Nc3ccc(F)c(Cl)c3)c2cc1NC(=O)C=CCN(C)C` [Example 203, 4-Dimethylamino-but-2-enoic acid [4-(3-chloro-4-fluorophenylamino)-3-cyano-7-methoxy-quinolin-6-yl]-amide] came in with an IC50 in series [1] of 2.2 µM. The half-maximal inhibitory concentration (IC50) in series [2] was < 1 µM and 0.8 µM. Also, in series [5] (80 mg/kg/dose IP on days 1,5,9), the “%T/C Day 7” value came to 20%, the “%T/C Day 14” value stood at 12%, the “%T/C Day 21” value is 14% and the “%T/C Day 28” value came to 16%. In addition, in series [5] (80 mg/kg/dose IP on days 1,5,9), the “S/T = No. Survivors/No. Treated” value is listed as 5/5. Also, in series [5] (setting [6]), the “%T/C Day 7” value was 15%, the “%T/C Day 14” value was found to be 8%, the “%T/C Day 21” value came out at 12% and the “%T/C Day 28” value is given as 17%. Besides, the “S/T = No. Survivors/No. Treated” value in series [5] (setting [6]) is listed as 4/5.
Take `CCN(CC)CC#CC(=O)Nc1ccc2ncc(C#N)c(Nc3cccc(Br)c3)c2c1` [Example 187, N-[4-[(3-Bromophenyl)amino]-3-cyano-6-quinolinyl]-4-diethylamino-2-butynamide]: the IC50 in the series with A431 is 0.06 µg/mL (≈ 0.126 µM); in series [1], more than 42 µM; in [2], more than 100 µM; in series [3], 0.0007 µM; in the series with SKBR3, 0.06 µg/mL (≈ 0.126 µM); in the series with SW620, 0.05 µg/mL (≈ 0.105 µM). In addition, the IC50 in the series on LOX came to 0.07 µg/mL (≈ 0.147 µM).
In the case of `COc1cc2c(Nc3cc(O)c(Cl)cc3F)c(C#N)cnc2c(OC)c1OC` [Example 244, 4-(4-Chloro-2-fluoro-5-hydroxy-phenylamino)-6,7,8-trimethoxy-quinoline-3-carbonitrile], the results for the IC50 in series [1], in [4] and in series [2] were 24.8 µM, more than 74.3 µM and more than 100 µM, respectively.
Consider `COc1cc2c(Nc3cccc(Br)c3)c(C#N)cnc2c(OC)c1OC` [Example 241, 4-(3-Bromo-phenylamino)-6,7,8-trimethoxy-quinoline-3-carbonitrile], for which the figures for the IC50 in series [1], in series [4] and in [2] were 7.24 µM, more than 72.4 µM and more than 100 µM, respectively.
In the case of `CC(C)N(CC#CC(=O)Nc1ccc2ncc(C#N)c(Nc3cccc(Br)c3)c2c1)C(C)C` [Example 192, N-[4-[(3-Bromophenyl)amino]-3-cyano-6-quinolinyl]-4-diisopropylamino-2-butynamide], the IC50 in the series with A431 is 0.05 µg/mL (≈ 0.0991 µM); in series [1], 39.6 µM; in series [2] it was more than 100 µM; in series [3], 0.0006 µM; with SKBR3, 0.03 µg/mL (≈ 0.0595 µM); in the series with SW620 it was 0.1 µg/mL (≈ 0.198 µM).
Regarding `CCOc1cc2ncc(C#N)c(Nc3ccc(C)c(O)c3)c2cc1OC` [Example 177, 7-Ethoxy-4-[(3-hydroxy-4-methylphenyl)amino]-6-methoxy-3-quinolinecarbonitrile], the IC50 in [1] is 0.0057 µM; in [4], 0.143 µM; in series [2], 40 µM.
As for `COc1cc2ncc(C#N)c(Nc3ccc(O)cc3C)c2cc1OC` [Example 292, 4-(4-Hydroxy-2-methyl-phenylamino)-6,7-dimethoxy-quinoline-3-carbonitrile], the IC50 in series [1] is 0.0018 µM; in [4], 29.8 µM; in series [2], more than 100 µM.
Taken in the same sequence, the figures for `COc1cc2c(Nc3cc(O)c(Cl)cc3F)c(C#N)cnc2cc1OCCCN(C)C` [Example 84, 4-(4-Chloro-2-fluoro-5-hydroxy-phenylamino)-7-(3-dimethylaminopropoxy)-6-methoxy-quinoline-3-carbonitrile] were 0.449 µM, 0.674 µM and less than 1 µM.
Turning to `CN(C)CC#CC(=O)Nc1ccc2ncc(C#N)c(Nc3ccc(F)c(Cl)c3)c2c1` [Example 193, N-[4-[(3-Chloro-4-fluorophenyl)amino]-3-cyano-6-quinolinyl]-4-dimethylamino-2-butynamide], the IC50 in the series on A431 is 0.01 µg/mL (≈ 0.0237 µM); in [1] it was 47.4 µM; in series [2] it was 50 µM; in series [3], 0.0019 µM; with SKBR3, 0.003 µg/mL (≈ 0.00711 µM); in the series on SW620, 0.1 µg/mL (≈ 0.237 µM).
Consider `COc1ccc2c(Nc3cc(O)c(Cl)cc3F)c(C#N)cnc2c1` [Example 282, 4-(4-Chloro-2-fluoro-5-hydroxy-phenylamino)-7-methoxy-quinoline-3-carbonitrile], for which the IC50 in series [1] is 0.0029 µM; in [4], 5.82 µM; in series [2] it was more than 100 µM.
In the case of `N#Cc1cnc2ccc(NC(=O)C#CCN3CCCCC3)cc2c1Nc1cccc(Br)c1` [Example 169, N-{4-[(3-Bromophenyl)amino]-3-cyano-6-quinolinyl}-4-piperidino-2-butynamide], the IC50 with A431 was 0.01 µg/mL (≈ 0.0205 µM); in series [1] it was 40.9 µM; in series [2], more than 100 µM; in series [3], 0.005 µM; in the series on SKBR3 it was 0.02 µg/mL (≈ 0.041 µM); with SW620, 0.1 µg/mL (≈ 0.205 µM).
